Results on three compounds are retold here after ChEMBL document CHEMBL1125524, “Adenosine A1 antagonists. 2. Structure-activity relationships on diuretic activities and protective effects against acute renal failure” (J Med Chem, 1992).

In general, Ki refers to a dissociation constant, usually derived from enzyme kinetics or from competition with a known ligand.

Test [1] relates to Rattus norvegicus. Briefly: Serum creatinine concentration measured after intraperitoneal administration of 1 mg/kg of compound to rats(vehicle 5.07+/-0.33). Type of test: functional.
Test [2] concerns Rattus norvegicus. Briefly: Serum creatinine concentration measured after intraperitoneal administration of 10 mg/kg of compound to rats(vehicle 5.53+/-0.34). Type of test: functional.
Test [3] concerns Rattus norvegicus. Briefly: Urea nitrogen concentration measured after intraperitoneal administration of 1 mg/kg of compound to rats(vehicle 195.8+/-14.4). Type of test: functional.
The test system of test [4] is Rattus norvegicus. Nature of the test: Percent inhibition of serum creatinine by the compound given as ratio of Cr value in treated to vehicle treated ones after intraperitoneal administration of 10 mg/kg of compound to rats(vehicle 5.53+/-0.34). As to conditions: ip. Type of test: functional.
Test [5] relates to Rattus norvegicus. Briefly: Effect on urinary excretion potassium and sodium after oral administration of 25 mg/kg to rats(potassium and sodium excretion in control rat is 0.265+/-0.099). Type of test: functional, Urine.
Test [6] concerns Rattus norvegicus. Briefly: Ratio of urinary excretion value (urinary volume) in treated rats to that in control rats, at a peroral dose of 25 mg/Kg. In kind it is functional, Urine.
Test [7] has as its system Rattus norvegicus. Briefly: Ratio of sodium ion/potassium ion concentration in treated rats to that in control rats, at a peroral dose of 25 mg/Kg. In kind it is functional.
Test [8] concerns Rattus norvegicus. Nature of the test: Ratio of urinary excretion value (Na+ concentration) in treated rats to that in control rats, at a peroral dose of 25 mg/Kg. In kind it is functional, Urine.
Test [9] deals with Rattus norvegicus. Nature of the test: Ratio of urinary excretion value (Na+ concentration) in treated rats to that in control rats, at a peroral dose of 6.25 mg/Kg. Type of test: functional, Urine.
The test system of test [10] is Rattus norvegicus. Nature of the test: Oral diuretic activity was measured after oral administration of 25 mg/kg to rats(control volume is 1.64+/-0.7). Type of test: functional, Urine.
Test [11] relates to Rattus norvegicus. Briefly: Urea nitrogen concentration measured after intraperitoneal administration of 10 mg/kg of compound to rats(vehicle 177.4+/-5.3). Type of test: functional.
Test [12] has as its system Rattus norvegicus. Briefly: Percent inhibition of Urea nitrogen by the compound given as ratio of UN value in treated to vehicle treated ones after intraperitoneal administration of 10 mg/kg of compound to rats(vehicle 177.4+/-5.3). As to conditions: ip. Type of test: functional.
The subject of test [13] is Rattus norvegicus. Briefly: Percent inhibition of Urea nitrogen by the compound given as ratio of UN value in treated to vehicle treated ones after intraperitoneal administration of 1 mg/kg of compound to rats(vehicle 195.8+/-14.4). In kind it is functional. As to conditions: Rattus norvegicus, ip.
For test [14], the system named is Rattus norvegicus. Briefly: Ratio of urinary excretion value (urinary volume) in treated rats to that in control rats, at a peroral dose of 6.25 mg/Kg. In kind it is functional, Urine.
A further test concerns the target Adenosine A2 receptor (Rattus norvegicus, UniProt P29276+P30543).
The species named for test [15] is Rattus norvegicus. Nature of the test: animal or person. As to conditions: ip, read-out: Inhibition, dose 1 mg/kg, route intraperitoneal.
Test [16] relates to Rattus norvegicus. Nature of the test: Serum creatinine concentration measured after intraperitoneal administration of 1 mg/kg of compound to rats(vehicle 4.70+/-0.17). Type of test: functional.
Test [17] relates to Rattus norvegicus. Briefly: Serum creatinine concentration measured after intraperitoneal administration of 10 mg/kg of compound to rats(vehicle 4.41+/-0.16). In kind it is functional.
Test [18] concerns Rattus norvegicus. Nature of the test: Percent inhibition of serum creatinine by the compound given as ratio of Cr value in treated to vehicle treated ones after intraperitoneal administration of 1 mg/kg of compound to rats(vehicle 4.70+/-0.17). In kind it is functional. As to conditions: ip.
Test [19] relates to Rattus norvegicus. Briefly: Percent inhibition of serum creatinine by the compound given as ratio of Cr value in treated to vehicle treated ones after intraperitoneal administration of 10 mg/kg of compound to rats(vehicle 4.41+/-0.16). In kind it is functional. As to conditions: ip.
In test [20] the test system is Rattus norvegicus. Briefly: Urea nitrogen concentration measured after intraperitoneal administration of 1 mg/kg of compound to rats(vehicle 154.2+/-5). Type of test: functional.
Test [21] has as its system Rattus norvegicus. Briefly: Effect on urinary excretion potassium and sodium after oral administration of 25 mg/kg to rats(potassium and sodium excretion in control rat is 0.180+/-0.014). Type of test: functional, Urine.
The subject of test [22] is Rattus norvegicus. Briefly: Oral diuretic activity was measured after oral administration of 25 mg/kg to rats(control volume is 1.21+/-0.08). In kind it is functional, Urine.
For test [23], the system named is Rattus norvegicus. Briefly: Urea nitrogen concentration measured after intraperitoneal administration of 10 mg/kg of compound to rats(vehicle 145.1+/-7.4). In kind it is functional.
Test [24] deals with Rattus norvegicus. Briefly: Percent inhibition of Urea nitrogen by the compound given as ratio of UN value in treated to vehicle treated ones after intraperitoneal administration of 10 mg/kg of compound to rats(vehicle 145.1+/-7.4). As to conditions: ip. Type of test: functional.
The test system of test [25] is Rattus norvegicus. Briefly: Percent inhibition of Urea nitrogen by the compound given as ratio of UN value in treated to vehicle treated ones after intraperitoneal administration of 1 mg/kg of compound to rats(vehicle 154.2+/-5). As to conditions: ip. Type of test: functional.
Test [26] deals with Rattus norvegicus. Nature of the test: Serum creatinine concentration measured after intraperitoneal administration of 10 mg/kg of compound to rats(vehicle 3.22+/-0.35). In kind it is functional.
Test [27] has as its system Rattus norvegicus. Nature of the test: Ratio of urinary excretion value (urinary volume) in treated rats to that in control rats, at a peroral dose of 1.6 mg/Kg. Type of test: functional, Urine.
Test [28] relates to Rattus norvegicus. Briefly: Ratio of sodium ion/potassium ion concentration in treated rats to that in control rats, at a peroral dose of 1.6 mg/Kg. Type of test: functional.
The test system of test [29] is Rattus norvegicus. Briefly: Ratio of urinary excretion value (Na+ concentration) in treated rats to that in control rats, at a peroral dose of 1.6 mg/Kg. Type of test: functional, Urine.
Test [30] concerns Rattus norvegicus. Briefly: Percent inhibition of serum creatinine by the compound given as ratio of Cr value in treated to vehicle treated ones after intraperitoneal administration of 10 mg/kg of compound to rats(vehicle 3.22+/-0.35). Type of test: functional. As to conditions: ip.
The test system of test [31] is Rattus norvegicus. Briefly: Percent inhibition of Urea nitrogen by the compound given as ratio of UN value in treated to vehicle treated ones after intraperitoneal administration of 10 mg/kg of compound to rats(vehicle 110.7+/-9.4). Type of test: functional. As to conditions: ip.

`CCCn1c(=O)[nH]c(=O)c2[nH]c(C34CC5CC(CC3C5)C4)nc21`: the Cr came out at 4.33 mg/dL with Rattus norvegicus [1] and 2.83 mg/dL with Rattus norvegicus [2]. Besides, the UN is 164.9 mg/dL in the test on Rattus norvegicus [3] and 107.4 mg/dL with Rattus norvegicus [11]. For the same compound, the inhibition in vivo at 10 mg/kg in the test on Rattus norvegicus [4] worked out at 49%; with Rattus norvegicus [12] it was 39%. Also, the Na with Rattus norvegicus [5] is 0.4 m equiv 6hr-1 100g-1. For the same compound, the T/C in the test with Rattus norvegicus [6] is 1.43; in the test on Rattus norvegicus [8], 1.51; with Rattus norvegicus [9] it was 1.49; in the test on Rattus norvegicus [14], 1.26. Also, in the test on Rattus norvegicus [7], the “Na+/K+” value amounted to 1.29. In the test on Rattus norvegicus [10], this compound displayed a Urine volume of 2.34 ml 6hr-1 100g-1. Besides, the inhibition in vivo at 1 mg/kg in the test on Rattus norvegicus [13] was 16%; in the test filed under Rattus norvegicus [15] it was 15%. The same compound gave a Ki at Adenosine A2 receptor above 100 µM.

Take `Cn1c(=O)c2c(ncn2C)n(C)c1=O` [CAFFEINE]: the figures for the Cr in the test on Rattus norvegicus [16] and in the test on Rattus norvegicus [17] were 3.68 mg/dL and 2.85 mg/dL, respectively. The inhibition in vivo at 1 mg/kg with Rattus norvegicus [18] amounted to 22%; with Rattus norvegicus [25], 18%. The inhibition in vivo at 10 mg/kg with Rattus norvegicus [19] was found to be 35%; in the test on Rattus norvegicus [24], 25%. Moreover, the T/C in the test on Rattus norvegicus [6] is reported as 1.68; with Rattus norvegicus [8], 1.55; in the test on Rattus norvegicus [9] it was 1.1; with Rattus norvegicus [14], 0.92. Besides, the UN was found to be 125.7 mg/dL in the test with Rattus norvegicus [20] and 109 mg/dL with Rattus norvegicus [23]. In addition, in the test with Rattus norvegicus [7], the “Na+/K+” value came out at 1.28. In the test with Rattus norvegicus [21], this compound returned a Na of 0.28 m equiv 6hr-1 100g-1. Further, the Urine volume with Rattus norvegicus [22] worked out at 1.84 ml 6hr-1 100g-1.

Consider `NS(=O)(=O)c1cc(C(=O)O)c(NCc2ccco2)cc1Cl` [FUROSEMIDE], for which the Cr in the test on Rattus norvegicus [26] came out at 4.17 mg/dL. Further, the T/C stood at 1 in the test with Rattus norvegicus [27]; 1.75 in the test on Rattus norvegicus [6]; 0.94 in the test with Rattus norvegicus [29]; 1.64 in the test with Rattus norvegicus [8]; 1.62 with Rattus norvegicus [9]; 1.59 in the test on Rattus norvegicus [14]. Further, the “Na+/K+” value in the test on Rattus norvegicus [28] is given as 0.87; with Rattus norvegicus [7], 1.05. Moreover, the inhibition in vivo at 10 mg/kg with Rattus norvegicus [30] is -30%; with Rattus norvegicus [31] it was -36%. The same compound had a Urine volume in the test with Rattus norvegicus [22] of 2.12 ml 6hr-1 100g-1.
